Assay results published in patent US20120184542A1, “PYRIDO PYRIMIDINES” (priority 2011, published 2012).
Where a name gives a salt, the structure may show the parent alone.

Tests used:
[1] = target: T1, Human DYRK1B (Homo sapiens, UniProt Q9Y463); assay: DYRK1B Kinase TR-FRET (IMAP-Tb) Assay; format: biochemical; settings: TR-FRET (IMAP-Tb); ATP 70 μM; 37° C. 60 minutes; read-out: Enzyme IC50 (μM) DYRK1B
T1 construct: purchased Invitrogen PR8350B (former PV4649)

[2] = target: T2, Human DYRK1A (Homo sapiens, UniProt Q13627); assay: DYRK1A Kinase TR-FRET (IMAP-Tb) Assay; format: biochemical; settings: TR-FRET (IMAP-Tb); ATP 70 μM; 37° C. 60 minutes; read-out: Enzyme IC50 (μM) DYRK1A
T2 construct: purchased Invitrogen PV3997
Summary of the method: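 Recombinant human DYRK1A phosphorylated fluorescent substrate peptide (1.0 μM) with ATP in 10 mM HEPES pH 7.0, 50 mM NaCl, 5 mM MgCl2, 1 mM DTT, 1 mM NaVO4, 0.02% BSA for 60 min at 37 °C. Phosphopeptide detected by IMAP terbium TR-FRET; IC50 reported.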

[3] = tested on: SW620 human colon cancer cells; assay: SW620 Cell Viability Assay; format: cell-based; settings: Homo sapiens, SW-620, 96 h, CellTiter-Glo; 4 days incubation; read-out: Cellular EC50 (μM) SW620
Summary of the method: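 SW620 human colon cancer cells, some attached 24 h then serum-starved 48 h before dosing; compounds prepared in serum-supplemented medium. Cells incubated with compound 4 days at 37 °C, 5% CO2, and viability measured by CellTiter-Glo luminescence.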

T1 sequence (Q9Y463 whole entry): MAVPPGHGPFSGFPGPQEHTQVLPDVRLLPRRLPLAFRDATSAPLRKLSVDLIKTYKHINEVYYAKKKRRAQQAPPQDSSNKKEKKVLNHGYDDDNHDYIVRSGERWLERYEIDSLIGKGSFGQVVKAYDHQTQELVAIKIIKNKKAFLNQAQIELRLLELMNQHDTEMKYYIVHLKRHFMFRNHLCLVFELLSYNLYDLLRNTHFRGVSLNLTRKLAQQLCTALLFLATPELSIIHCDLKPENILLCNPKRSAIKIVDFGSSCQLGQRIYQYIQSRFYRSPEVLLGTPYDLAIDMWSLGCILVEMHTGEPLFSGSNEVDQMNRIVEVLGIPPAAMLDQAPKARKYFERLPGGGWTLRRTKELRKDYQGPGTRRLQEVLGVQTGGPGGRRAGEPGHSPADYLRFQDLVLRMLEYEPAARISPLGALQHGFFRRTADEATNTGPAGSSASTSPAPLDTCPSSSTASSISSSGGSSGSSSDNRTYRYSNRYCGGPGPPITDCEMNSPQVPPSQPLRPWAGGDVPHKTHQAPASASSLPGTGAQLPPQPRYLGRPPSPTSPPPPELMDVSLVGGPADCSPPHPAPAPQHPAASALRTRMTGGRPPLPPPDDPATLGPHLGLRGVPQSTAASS

SMILES | IC50 [1] [µM] | IC50 [2] [µM] | EC50 [3] [µM]
O=C(NCc1cccc(F)c1)c1cc(NC(=O)c2cc3cnc(N4CCOCC4)nc3[nH]c2=O)c(Cl)cc1F [Example 162, 2-Morpholin-4-yl-7-oxo-7,8-dihydro-pyrido[2,3-d]pyrimidine-6-carboxylic acid [2-chloro-4-fluoro-5-(3-fluoro-benzylcarbamoyl)-phenyl]-amide] | 0.135 | 0.0432 | > 10
COc1ncc2cc(C(=O)Nc3cc(C(=O)NCCC(N)=O)ccc3Cl)c(=O)[nH]c2n1 [Example 167, N-(5-(3-Amino-3-oxopropylcarbamoyl)-2-chlorophenyl)-2-methoxy-7-oxo-7,8-dihydropyrido[2,3-d]pyrimidine-6-carboxamide] | 0.769 | 0.338 | > 10
COc1nc(C)c2cc(C(=O)Nc3cc(C(=O)NC(CN)c4ccccc4)ccc3Cl)c(=O)[nH]c2n1 (stereo not drawn) [Example 170, N-(5-(2-Amino-1-phenylethylcarbamoyl)-2-chlorophenyl)-2-methoxy-4-methyl-7-oxo-7,8-dihydropyrido[2,3-d]pyrimidine-6-carboxamide 2,2,2-trifluoroacetate] | 0.117 | 0.0164 | 3.21
CN1CCN(c2ncc3cc(C(=O)Nc4cc(C(=O)NCc5ccccc5)ccc4Cl)c(=O)[nH]c3n2)CC1 [Example 172, 2-(4-Methyl-piperazin-1-yl)-7-oxo-7,8-dihydro-pyrido[2,3-d]pyrimidine-6-carboxylic acid (5-benzylcarbamoyl-2-chloro-phenyl)-amide] | 0.208 | 0.109 | 0.49
C[C@@H](NC(=O)c1ccc(Cl)c(NC(=O)c2cc3cnc(N4CCN(C)CC4)nc3[nH]c2=O)c1)c1ccccc1 [Example 174, 2-(4-Methyl-piperazin-1-yl)-7-oxo-7,8-dihydro-pyrido[2,3-d]pyrimidine-6-carboxylic acid [2-chloro-5-((R)-1-phenyl-ethylcarbamoyl)-phenyl]-amide] | 0.207 | 0.0873 | 0.512
O=C(NCc1cccc(Cl)c1)c1ccc(Cl)c(NC(=O)c2cc3cnc(N4C[C@H]5CC[C@@H](C4)O5)nc3[nH]c2=O)c1 [Example 179, 2-(1R,5S)-8-Oxa-3-aza-bicyclo [3.2.1]oct-3-yl-7-oxo-7,8-dihydro-pyrido[2,3-d]pyrimidine-6-carboxylic acid [2-chloro-5-(3-chloro-benzylcarbamoyl)-phenyl]amide] | 0.131 | 0.0369 | 0.367
O=C(NC(CO)c1ccccc1)c1ccc(Cl)c(NC(=O)c2cc3cnc(N4C[C@H]5CC[C@@H](C4)O5)nc3[nH]c2=O)c1 (stereo partly drawn) [Example 181, 2-(1R,5S)-8-Oxa-3-aza-bicyclo [3.2.1]oct-3-yl-7-oxo-7,8-dihydro-pyrido[2,3-d]pyrimidine-6-carboxylic acid [2-chloro-5-(2-hydroxy-1-phenyl-ethylcarbamoyl)-phenyl]amide] | 0.148 | 0.063 | 1.88
O=C(NC(CCO)c1ccccc1)c1ccc(Cl)c(NC(=O)c2cc3cnc(N4C[C@H]5CC[C@@H](C4)O5)nc3[nH]c2=O)c1 (stereo partly drawn) [Example 182, 2-(1R,5S)-8-Oxa-3-aza-bicyclo [3.2.1]oct-3-yl-7-oxo-7,8-dihydro-pyrido[2,3-d]pyrimidine-6-carboxylic acid [2-chloro-5-(3-hydroxy-1-phenyl-propylcarbamoyl)-phenyl]amide] | 0.081 | 0.083 | 1.12
NCCC(NC(=O)c1ccc(Cl)c(NC(=O)c2cc3cnc(N4C[C@H]5CC[C@@H](C4)O5)nc3[nH]c2=O)c1)c1ccccc1 (stereo partly drawn) [Example 183, 2-(1R,5S)-8-Oxa-3-aza-bicyclo [3.2.1]oct-3-yl-7-oxo-7,8-dihydro-pyrido[2,3-d]pyrimidine-6-carboxylic acid [5-(3-amino-1-phenyl-propylcarbamoyl)-2-chloro-phenyl]amide; hydrochloride] | 0.0077 | 0.0046 | 0.027
COc1ncc2cc(C(=O)Nc3cc(C(=O)NCC[C@@H](N)c4ccccc4)ccc3Cl)c(=O)[nH]c2n1 [Example 184, (R)—N-(5-(3-Amino-3-phenylpropylcarbamoyl)-2-chlorophenyl)-2-methoxy-7-oxo-7,8-dihydropyrido[2,3-d]pyrimidine-6-carboxamide] | 0.691 | 0.331 | 5.09
